Data published in patent publication US12145947B2, “Pyrimidine based modulators and uses thereof” (Quanta Therapeutics, Inc., priority 2022, dated 2024).

Tests used:
[1] = biological target: T1, GST-tagged KRAS-G12D (2-169) (Homo sapiens, UniProt P01116, G12D); test: Nucleotide exchange assay (NEA), SOS-mediated, HTRF, KRAS G12D; format: biochemical; conditions: Table 4; IC50 extracted at 30 min
T1 construct: GST-tagged KRAS-G12D (2-169, Reaction Biology, MSC-11-539); purchased Reaction Biology MSC-11-539 (KRAS G12D); MSC-11-502 (SOS1cat)
T1 sequence (P01116 2-169 isoform P01116-2 G12D): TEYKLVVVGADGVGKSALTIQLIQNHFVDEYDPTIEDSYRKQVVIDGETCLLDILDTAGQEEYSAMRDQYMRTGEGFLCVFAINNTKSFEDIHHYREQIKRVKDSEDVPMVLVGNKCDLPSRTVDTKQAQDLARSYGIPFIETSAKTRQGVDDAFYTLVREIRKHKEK
Summary of the method: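 GST-KRAS-G12D (2-169, 5 nM final) with Tb-anti-GST donor was preincubated with compound 1 h at RT (pH 7.3 HEPES buffer, MgCl2, DTT), then SOScat (564-1049, 20 nM) and GTP-DY-647P1 (150 nM) were added. HTRF was read at RT; % inhibition vs DMSO/no-SOS blank, 4-parameter IC50 taken at 30 min.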

KRAS G12D/RAF1 = biological target: T2, KRAS G12D/RAF1 (Homo sapiens, UniProt P01116, G12D); test: Protein-protein interaction (PPI) HTRF assay KRAS G12D/RAF1; format: binding; conditions: Table 4
T2 construct: His6-MBP (N, cleaved yes); made in house; host or cells: E. coli
T2 sequence (P01116 with tags, fused parts or gaps isoform P01116-2 G12D): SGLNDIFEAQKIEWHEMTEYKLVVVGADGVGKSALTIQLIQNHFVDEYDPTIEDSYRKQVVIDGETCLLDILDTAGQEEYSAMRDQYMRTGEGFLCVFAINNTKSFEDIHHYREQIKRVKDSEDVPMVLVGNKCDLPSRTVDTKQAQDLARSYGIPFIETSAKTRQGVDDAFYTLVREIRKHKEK
Method: Biotinylated KRAS wt and KRAS G12DNV proteins were expressed and purified in conditions similar to those previously reported (Tran, et al., 2021) (Zhang, et al., 2020). Briefly, KRAS (1-169) proteins were expressed in E. coli at 18° C. with an upstream TEV cleavage site (ENLFYQS (SEQ ID NO: 6)) followed an Avi tag sequence ([…] (SEQ ID NO: 7)). KRAS expression constructs contained both a His6 (SEQ ID NO: 8) and maltose-binding protein (MBP) tags at the N-terminus for Ni-NTA column purification prior to overnight TEV cleavage and MBP column purification. The avi-tagged NRAS expression construct contained both a His6 tag (SEQ ID NO: 8) and SUMO cleavage sige at the N-terminus for Ni-NTA column purification followed by His-ULPi digestion overnight. All avi-tagged RAS proteins were dialyzed into buffer containing ATP, biotin, and BirA followed by purification over a second Ni-NTA column and then run over a size exclusion HiLoad™ 26/600 Superdex™ column in 20 mM HEPES, pH 7.5, 300 mM NaCl, 5 mM MgCl2, and 1 mM TCEP. Fractions containing the protein of interest were pooled, concentrated, and confirmed by intact mass spectrometry. To prepare ‘GTP’ loaded KRAS and NRAS, biotinylated KRAS or NRAS was nucleotide exchanged from GDP-bound protein to GppNHp-bound (Jena Biosciences, NU-401-50) protein in the presence of alkaline phosphatase and excess GppNHp as previously described and the resulting nucleotide content was confirmed by HPLC reverse phase analytical chromatography (Donohue, et al., 2019) (Tran, et al., 2021).
His-tagged RAF1 (52-131) was similarly expressed in E. coli at 18° C. overnight with an upstream TEV cleavage site. His-tagged RAF1 expression construct contained both a His6 (SEQ ID NO: 8) and MBP tags at the N-terminus for Ni-NTA column purification followed by MBP-tagged TEV digestion overnight. RAF1 protein samples were further purified over a MBP column followed by a Ni-NTA column and a second MBP column. The fractions containing the protein of interest were pooled, concentrated, and further purified over a HiLoad™ 16/600 Superdex™ 75 pg size exclusion column into 20 mM HEPES, pH8.0, 200 mM NaCl, 5 mM TCEP.
When RAS proteins are in the active GTP-bound conformation, they bind the effector protein RAF1 at the N-terminus Ras-binding domain (RBD, residues 52-131) (Tran, et al., 2021). Homogenous time resolved fluorescence (HTRF) was used to monitor the interaction between wt or mutant KRAS and RAF1 or wt NRAS and RAFT. Compounds were assayed in the presence of KRAS G12D/V and RAF1 versus wt KRAS to assess activity against mutant and w.t. KRAS. Similarly, compounds were then assayed in the presence of w.t. NRAS and RAF1 to assess RAS isoform selectivity. In all assay formats, His-tagged RAF1 protein was incubated with the HTRF donor, anti-6His (“6His” disclosed as SEQ ID NO: 8) Tb Cryptate gold (Cisbio 61DB10RDF), and biotinylated RAS proteins were incubated with the HTRF acceptor, streptavidin-d2 (CisBio 610SADLA). The intensity of the fluorescence signal emitted is proportional to binding between the two proteins. The donor solution was prepared by mixing 16 nM His-tagged RAF1 in protein dilution buffer with 1:100 anti-6His (“6His” disclosed as SEQ ID NO: 8) Tb cryptate in PPI-Terbium detection buffer. 16 nM biotinylated RAS protein was diluted into protein dilution buffer (50 mM Tris-HCl pH 7.5, 150 mM NaCl, 0.1 mM MgCl2, 1 mM TCEP, 0.005% Tween20) and mixed with 1:2000 Streptavidin-d2 diluted in PPI-Terbium detection buffer (CisBio 61DBTORDF). 50× compound in DMSO was mixed with 16 nM KRAS-acceptor solution and incubated for 30 minutes at room temperature. After compound pre-incubation with KRAS, the RAF1 donor solution was added to the KRAS-acceptor solution and incubated for 1 hour at room temperature. The fluorescence signal emitted was monitored at 665 nm and 615 nm using an Envision multimode plate reader. […]

| Compound | IC50 [1] | IC50 (KRAS G12D/RAF1) |
| --- | --- | --- |
| Cc1nnc(-c2nn3c(c2Cl)CN(c2nc(OC[C@@]45CCCN4C[C@H](F)C5)nc(N4CC5(CCc6sc(N)c(C#N)c65)C4)c2C#N)CCC3)n1C [Compound 60, 2-amino-1′-[6-[3-chloro-2-(4,5-dimethyl-1,2,4-triazol-3-yl)-4,6,7,8-tetrahydropyrazolo[1,5-a][1,4]diazepin-5-yl]-5-cyano-2-[[(2R,8S)-2-fluoro-1,2,3,5,6,7-hexahydropyrrolizin-8-yl]methoxy]pyrimidin-4-yl]spiro[5,6-dihydrocyclopenta[b]thiophene-4,3′-azetidine]-3-carbonitrile] | < 0.01 µM | 1 to 10 µM |
| CN1CCc2c(cccc2Oc2nc(N3C[C@H]4CC[C@@H](C3)N4)c(C#N)c(N3CC4(CCc5sc(N)c(C#N)c54)C3)n2)C1 [Compound 57, 2-amino-1′-[5-cyano-2-[(2-methyl-3,4-dihydro-1H-isoquinolin-5-yl)oxy]-6-[(1R,5S)-3,8-diazabicyclo[3.2.1]octan-3-yl]pyrimidin-4-yl]spiro[5,6-dihydrocyclopenta[b]thiophene-4,3′-azetidine]-3-carbonitrile] | 1 to 20 µM | 10 to 100 µM |
| N#Cc1c(N2C[C@H]3CC[C@@H](C2)[C@@H]3N)nc(OCC2(CN3CCOCC3)CC2)nc1N1CC2(CCc3sc(N)c(C#N)c32)C1 [Compound 61, 2-amino-1′-[6-[(1R,5S)-8-amino-3-azabicyclo[3.2.1]octan-3-yl]-5-cyano-2-[[1-(morpholinomethyl)cyclopropyl]methoxy]pyrimidin-4-yl]spiro[5,6-dihydrocyclopenta[b]thiophene-4,3′-azetidine]-3-carbonitrile] | 0.01 to 0.1 µM | 0.1 to 1 µM |
| N#Cc1c(N2C[C@H]3CC[C@@H](C2)N3)nc(OCc2[nH]ncc2F)nc1N1CC2(CCc3sc(N)c(C#N)c32)C1 [Compound 90, 2-amino-1′-[5-cyano-6-[(1R,5S)-3,8-diazabicyclo[3.2.1]octan-3-yl]-2-[(4-fluoro-1H-pyrazol-5-yl)methoxy]pyrimidin-4-yl]spiro[5,6-dihydrocyclopenta[b]thiophene-4,3′-azetidine]-3-carbonitrile] | 0.01 to 0.1 µM | 10 to 100 µM |
| N#Cc1c(N2CCn3nncc3C2)nc(OC[C@@]23CCCN2C[C@H](F)C3)nc1N1CC2(CCc3sc(N)c(C#N)c32)C1 [Compound 55, 2-amino-1′-[5-cyano-6-(6,7-dihydro-4H-triazolo[1,5-a]pyrazin-5-yl)-2-[[(2R,8S)-2-fluoro-1,2,3,5,6,7-hexahydropyrrolizin-8-yl]methoxy]pyrimidin-4-yl]spiro[5,6-dihydrocyclopenta[b]thiophene-4,3′-azetidine]-3-carbonitrile] | 0.1 to 1 µM | 10 to 100 µM |
| CC1Cn2nncc2CN1c1nc(OC[C@@]23CCCN2C[C@H](F)C3)nc(N2CC3(CCc4sc(N)c(C#N)c43)C2)c1C#N (stereo partly drawn) [Compound 67, 2-amino-1′-[5-cyano-6-(6-methyl-6,7-dihydro-4H-triazolo[1,5-a]pyrazin-5-yl)-2-[[(2R,8S)-2-fluoro-1,2,3,5,6,7-hexahydropyrrolizin-8-yl]methoxy]pyrimidin-4-yl]spiro[5,6-dihydrocyclopenta[b]thiophene-4,3′-azetidine]-3-carbonitrile] | 0.1 to 1 µM | 10 to 100 µM |
| N#Cc1c(N2C[C@H]3CC[C@@H](C2)N3)nc(OCc2n[nH]cc2C(F)(F)F)nc1N1CC2(CCc3sc(N)c(C#N)c32)C1 [Compound 106, 2-amino-1′-[5-cyano-6-[(1R,5S)-3,8-diazabicyclo[3.2.1]octan-3-yl]-2-[[4-(trifluoromethyl)-1H-pyrazol-3-yl]methoxy]pyrimidin-4-yl]spiro[5,6-dihydrocyclopenta[b]thiophene-4,3′-azetidine]-3-carbonitrile] | 0.01 to 0.1 µM | 10 to 100 µM |
| N#Cc1c(N2C[C@H]3CC[C@@H](C2)N3)nc(OCc2n[nH]cc2Cl)nc1N1CC2(CCc3sc(N)c(C#N)c32)C1 [Compound 104, 2-amino-1′-[2-[(4-chloro-1H-pyrazol-3-yl)methoxy]-5-cyano-6-[(1R,5S)-3,8-diazabicyclo[3.2.1]octan-3-yl]pyrimidin-4-yl]spiro[5,6-dihydrocyclopenta[b]thiophene-4,3′-azetidine]-3-carbonitrile] | < 0.01 µM | 10 to 100 µM |
| CN(C)C(=O)c1nn2c(c1Cl)CN(c1nc(OC[C@@]34CCCN3C[C@H](F)C4)nc(N3CC4(C3)C(=O)Cc3ccccc34)c1C#N)CCC2 [Compound 37, 3-chloro-5-[5-cyano-2-[[(2R,8S)-2-fluoro-1,2,3,5,6,7-hexahydropyrrolizin-8-yl]methoxy]-6-(2′-oxospiro[azetidine-3,1′-indane]-1-yl)pyrimidin-4-yl]-N,N-dimethyl-4,6,7,8-tetrahydropyrazolo[1,5-a][1,4]diazepine-2-carboxamide] | > 20 µM | > 100 µM |
| N#Cc1c(N2C[C@H]3CC[C@@H](C2)N3)nc(OCC2(CN3CCC(F)(F)C3)CC2)nc1N1CC2(CCc3sc(N)c(C#N)c32)C1 [Compound 58, 2-amino-1′-[5-cyano-6-[(1R,5S)-3,8-diazabicyclo[3.2.1]octan-3-yl]-2-[[1-[(3,3-difluoropyrrolidin-1-yl)methyl]cyclopropyl]methoxy]pyrimidin-4-yl]spiro[5,6-dihydrocyclopenta[b]thiophene-4,3′-azetidine]-3-carbonitrile] | < 0.01 µM | 1 to 10 µM |
| Cc1nc(COc2nc(N3C[C@H]4CC[C@@H](C3)N4)c(C#N)c(N3CC4(CCc5sc(N)c(C#N)c54)C3)n2)n[nH]1 [Compound 107, 2-amino-1′-[5-cyano-6-[(1R,5S)-3,8-diazabicyclo[3.2.1]octan-3-yl]-2-[(5-methyl-1H-1,2,4-triazol-3-yl)methoxy]pyrimidin-4-yl]spiro[5,6-dihydrocyclopenta[b]thiophene-4,3′-azetidine]-3-carbonitrile] | 0.01 to 0.1 µM | 10 to 100 µM |
| N#Cc1c(N2CCC(O)C(O)CC2)nc(OC[C@@]23CCCN2C[C@H](F)C3)nc1N1CC2(CCc3sc(N)c(C#N)c32)C1 (stereo partly drawn) [Compound 38, 2-amino-1′-[5-cyano-6-(4,5-dihydroxyazepan-1-yl)-2-[[(2R,8S)-2-fluoro-1,2,3,5,6,7-hexahydropyrrolizin-8-yl]methoxy]pyrimidin-4-yl]spiro[5,6-dihydrocyclopenta[b]thiophene-4,3′-azetidine]-3-carbonitrile] | 0.01 to 0.1 µM | 1 to 10 µM |
| N#Cc1c(N2C[C@H]3CC[C@@H](C2)N3)nc(OCC2(CN3CCS(=O)(=O)CC3)CC2)nc1N1CC2(CCc3sc(N)c(C#N)c32)C1 [Compound 95, 2-amino-1′-[5-cyano-6-[(1R,5S)-3,8-diazabicyclo[3.2.1]octan-3-yl]-2-[[1-[(1,1-dioxo-1,4-thiazinan-4-yl)methyl]cyclopropyl]methoxy]pyrimidin-4-yl]spiro[5,6-dihydrocyclopenta[b]thiophene-4,3′-azetidine]-3-carbonitrile] | < 0.01 µM | 1 to 10 µM |
